Marks after values point to notes of the source that are not given here.
Legend:
[1] = tested on: type 2 diabetic mouse (db/db) model; test: Efficacy study in db/db mice at 3 and 20 nM/kg dose (blood glucose, body weight, food intake); type: in vivo
Procedure: The effect of compounds of present invention on blood glucose, food intake and body weight was studied on mice. This study was performed in type 2 diabetic mouse (db/db) model. […] Baseline blood glucose was measured from all the animals. All animals were administered with test items subcutaneously. […] Delta blood glucose (mM) was calculated. Body weight changes and cumulative food consumption was measured at 72 hr post treatment.

[2] = tested on: type 2 diabetic mouse (db/db) model; test: Efficacy study in db/db mice at 10 nM/kg dose (blood glucose, body weight, food intake); type: in vivo
Procedure: The effect of compounds of present invention on blood glucose, food intake and body weight was studied in mice. This study was performed in a type 2 diabetic mouse (db/db) model. […] Baseline blood glucose was measured from all the animals. […] All the animals were administered with test items subcutaneously. […] Delta blood glucose (mM) was calculated.

[3] = Study 1, db/db mice, 10 nM/kg s.c.
[4] = Study 1, db/db mice, 10 nM/kg s.c., 48 hr
[5] = Study 1, db/db mice, 10 nM/kg s.c., 96 hr
[6] = Study 2, db/db mice, 10 nM/kg s.c. single dose
[7] = Study 2, db/db mice, 10 nM/kg s.c. single dose, 48 hr
[8] = Study 2, db/db mice, 10 nM/kg s.c. single dose, 96 hr
[9] = db/db mice, 10 nM/kg s.c., vs diabetic control

In the case of Tirzepatide [reference compound], the “Cumulative Food Intake (g), 0-72 hr, Mean” value ([1]; 3 nM/kg s.c.) is reported as 9.6*** g, the “Body weight change (%) 72 hr vs. Baseline, Mean” value ([1]; 3 nM/kg s.c., 72 hr) is reported as −3.4*** % and the “Cumulative Food Intake (g), 0-72 hr, Mean” value ([1]; 20 nM/kg s.c.) is reported as 8.4*** g. The “Body weight change (%) 72 hr vs. Baseline, Mean” value ([1]; 20 nM/kg s.c., 72 hr) was −4.9*** %, the “Cumulative food Intake (g) 0-48 hr. vs. Baseline, Mean” value [2, 3] was 4.9*** g and the “Cumulative food Intake (g) 0-96 hr. vs. Baseline, Mean” value [2, 3] was 13.0*** g. The “Body Wt. Change (%) 48 hr. vs. Baseline, Mean” value [2, 4] was −4.2*** % and the “Body Wt. Change (%) 96 hr. vs. Baseline, Mean” value [2, 5] was −2.8*** %.
CCC[C@H](NC(=O)[C@@H](NC(=O)[C@H](CO)NC(=O)[C@H](Cc1ccc(O)cc1)NC(=O)[C@H](CC(=O)O)NC(=O)[C@H](CO)NC(=O)[C@@H](NC(=O)[C@H](Cc1ccccc1)NC(=O)[C@@H](NC(=O)CNC(=O)[C@H](CCC(=O)O)NC(=O)C(C)(C)NC(=O)[C@@H](N)Cc1ccc(O)cc1)[C@@H](C)O)[C@@H](C)O)[C@@H](C)CC)C(=O)N[C@@H](CC(C)C)C(=O)N[C@@H](CC(=O)O)C(=O)N[C@@H](CCCCN)C(=O)N[C@H](C(=O)N[C@@H](C)C(=O)N[C@@H](CCC(N)=O)C(=O)N[C@@H](CCCCNC(=O)COCCOCCNC(=O)C(C)(C)NC(=O)CC[C@H](NC(=O)CCCCCCCCCCCCCCCCCCC(=O)O)C(=O)O)C(=O)N[C@@H](C)C(=O)N[C@@H](Cc1ccccc1)C(=O)N[C@H](C(=O)N[C@@H](CCC(N)=O)C(=O)N[C@@H](Cc1c[nH]c2ccccc12)C(=O)N[C@@H](CC(C)C)C(=O)N[C@H](C(=O)N[C@@H](C)C(=O)NCC(=O)NCC(=O)N1CCC[C@H]1C(=O)N[C@@H](CO)C(=O)N[C@@H](CO)C(=O)NCC(=O)N[C@@H](C)C(=O)N1CCC[C@H]1C(=O)N1CCC[C@H]1C(=O)N1CCC[C@H]1C(=O)N[C@@H](CO)C(N)=O)[C@@H](C)CC)C(C)C)[C@@H](C)CC [Compound 1] was tested, and the “glucose lowering effect” value ([1]; 3 nM/kg and 20 nM/kg s.c.) was “dose dependent improvement in glucose lowering effect upto 72 hours”, the “glucose lowering effect compared with tirzepatide” value ([1]; 3 nM/kg and 20 nM/kg s.c.) was “superior to tirzepatide at similar dosage” and the “Cumulative Food Intake (g), 0-72 hr, Mean” value ([1]; 3 nM/kg s.c.) was 10.2*** g. For the same compound, the “Delta Blood Glucose (mM) Mean” value ([1]; 3 nM/kg s.c., 0 hr (baseline)) was 0.0 mM, the “Delta Blood Glucose (mM) Mean” value ([1]; 3 nM/kg s.c., 4 hr) was −8.9*** mM and the “Delta Blood Glucose (mM) Mean” value ([1]; 3 nM/kg s.c., 24 hr) was −9.9*** mM. For the same compound, the “Delta Blood Glucose (mM) Mean” value ([1]; 3 nM/kg s.c., 48 hr) was −5.8** mM, the “Body weight change (%) 72 hr vs. Baseline, Mean” value ([1]; 3 nM/kg s.c., 72 hr) was −4.0*** % and the “Delta Blood Glucose (mM) Mean” value ([1]; 3 nM/kg s.c., 72 hr) was -3.2 mM. For the same compound, the “Cumulative Food Intake (g), 0-72 hr, Mean” value ([1]; 20 nM/kg s.c.) was 6.3*** g, the “Delta Blood Glucose (mM) Mean” value ([1]; 20 nM/kg s.c., 0 hr (baseline)) was 0.0 mM and the “Delta Blood Glucose (mM) Mean” value ([1]; 20 nM/kg s.c., 4 hr) was −13.7*** mM. The “Delta Blood Glucose (mM) Mean” value ([1]; 20 nM/kg s.c., 24 hr) was −13.6*** mM, the “Delta Blood Glucose (mM) Mean” value ([1]; 20 nM/kg s.c., 48 hr) was −14.0*** mM and the “Body weight change (%) 72 hr vs. Baseline, Mean” value ([1]; 20 nM/kg s.c., 72 hr) was −6.2*** %. For the same compound, the “Delta Blood Glucose (mM) Mean” value ([1]; 20 nM/kg s.c., 72 hr) was −7.9*** mM, the “effect on body weight” value ([1]; 3 and 20 nM/kg) was “significant, dose dependent and comparable to tirzepatide” and the “effect on food intake” value ([1]; 3 and 20 nM/kg) was “significant, dose dependent and comparable to tirzepatide”. The “Cumulative food Intake (g) 0-48 hr. vs. Baseline, Mean” value [2, 3] was 7.5*** g, the “Cumulative food Intake (g) 0-96 hr. vs. Baseline, Mean” value [2, 3] was 13.9*** g and the “Delta Blood Glucose (mM) Mean” value ([2]; Study 1, db/db mice, 10 nM/kg s.c., 0 hr (baseline)) was 0 mM. The “Delta Blood Glucose (mM) Mean” value ([2]; Study 1, db/db mice, 10 nM/kg s.c., 4 hr) was −12.7*** mM, the “Delta Blood Glucose (mM) Mean” value ([2]; Study 1, db/db mice, 10 nM/kg s.c., 8 hr) was −12.0*** mM and the “Delta Blood Glucose (mM) Mean” value ([2]; Study 1, db/db mice, 10 nM/kg s.c., 12 hr) was −10.5*** mM. For the same compound, the “Delta Blood Glucose (mM) Mean” value ([2]; Study 1, db/db mice, 10 nM/kg s.c., 24 hr) was −15.5*** mM, the “Body Wt. Change (%) 48 hr. vs. Baseline, Mean” value [2, 4] was −5.1*** % and the “Delta Blood Glucose (mM) Mean” value [2, 4] was −6.7*** mM. For the same compound, the “Delta Blood Glucose (mM) Mean” value ([2]; Study 1, db/db mice, 10 nM/kg s.c., 72 hr) was −4.3*** mM, the “Body Wt. Change (%) 96 hr. vs. Baseline, Mean” value [2, 5] was −4.2*** % and the “Delta Blood Glucose (mM) Mean” value [2, 5] was −2.2*** mM. For the same compound, the “Cumulative food Intake (g) 0-48 hr. vs. Baseline, Mean” value [2, 6] was 3.8*** g, the “Cumulative food Intake (g) 0-96 hr. vs. Baseline, Mean” value [2, 6] was 12.5*** g and the “Delta Blood Glucose (mM) Mean” value ([2]; Study 2, db/db mice, 10 nM/kg s.c. single dose, 0 hr (baseline)) was 0 mM. The “Delta Blood Glucose (mM) Mean” value ([2]; Study 2, db/db mice, 10 nM/kg s.c. single dose, 4 hr) was −10.0*** mM, the “Delta Blood Glucose (mM) Mean” value ([2]; Study 2, db/db mice, 10 nM/kg s.c. single dose, 8 hr) was −13.5*** mM and the “Delta Blood Glucose (mM) Mean” value ([2]; Study 2, db/db mice, 10 nM/kg s.c. single dose, 12 hr) was −12.3*** mM. The “Delta Blood Glucose (mM) Mean” value ([2]; Study 2, db/db mice, 10 nM/kg s.c. single dose, 24 hr) was −11.5*** mM, the “Body Wt. Change (%) 48 hr. vs. Baseline, Mean” value [2, 7] was −5.1*** % and the “Delta Blood Glucose (mM) Mean” value [2, 7] was −7.9*** mM. For the same compound, the “Delta Blood Glucose (mM) Mean” value ([2]; Study 2, db/db mice, 10 nM/kg s.c. single dose, 72 hr) was −4.3** mM, the “Body Wt. Change (%) 96 hr. vs. Baseline, Mean” value [2, 8] was −3.5*** % and the “Delta Blood Glucose (mM) Mean” value [2, 8] was -1.4 mM. The “effect on blood glucose reduction compared with tirzepatide” value ([2]; db/db mice, 10 nM/kg s.c., same concentration as tirzepatide) was “superior to tirzepatide”, the “blood glucose reduction” value [2, 9] was “statistically significant blood glucose reduction upto 96 hr post treatment” and the “body weight reduction” value [2, 9] was “statistically significant body weight reduction which was comparable to tirzepatide”. For the same compound, the “reduction in food consumption” value [2, 9] was “significant reduction in food consumption which was comparable to tirzepatide”.
